Assay results reported in patent US20240109891A1, “NOVEL SUBSTITUTED TRICYCLIC AZA-HETEROCYCLES AS SOS1 INHIBITORS” (Viva Star Biosciences (Suzhou) Co., Ltd., priority 2021, published 2024).

Legend:
[1] = target: T1, KRAS G12D and SOS1 proteins (Homo sapiens, UniProt Q07889); assay: KRAS-G12D/SOS1 binding assay (HTRF); settings: Tag1-SOS1 / Tag2-KRAS G12D, 10 μM GTP
T1 construct: purchased Cisbio 63ADK000CB17PEG
T1 sequence (Q07889 1-1333): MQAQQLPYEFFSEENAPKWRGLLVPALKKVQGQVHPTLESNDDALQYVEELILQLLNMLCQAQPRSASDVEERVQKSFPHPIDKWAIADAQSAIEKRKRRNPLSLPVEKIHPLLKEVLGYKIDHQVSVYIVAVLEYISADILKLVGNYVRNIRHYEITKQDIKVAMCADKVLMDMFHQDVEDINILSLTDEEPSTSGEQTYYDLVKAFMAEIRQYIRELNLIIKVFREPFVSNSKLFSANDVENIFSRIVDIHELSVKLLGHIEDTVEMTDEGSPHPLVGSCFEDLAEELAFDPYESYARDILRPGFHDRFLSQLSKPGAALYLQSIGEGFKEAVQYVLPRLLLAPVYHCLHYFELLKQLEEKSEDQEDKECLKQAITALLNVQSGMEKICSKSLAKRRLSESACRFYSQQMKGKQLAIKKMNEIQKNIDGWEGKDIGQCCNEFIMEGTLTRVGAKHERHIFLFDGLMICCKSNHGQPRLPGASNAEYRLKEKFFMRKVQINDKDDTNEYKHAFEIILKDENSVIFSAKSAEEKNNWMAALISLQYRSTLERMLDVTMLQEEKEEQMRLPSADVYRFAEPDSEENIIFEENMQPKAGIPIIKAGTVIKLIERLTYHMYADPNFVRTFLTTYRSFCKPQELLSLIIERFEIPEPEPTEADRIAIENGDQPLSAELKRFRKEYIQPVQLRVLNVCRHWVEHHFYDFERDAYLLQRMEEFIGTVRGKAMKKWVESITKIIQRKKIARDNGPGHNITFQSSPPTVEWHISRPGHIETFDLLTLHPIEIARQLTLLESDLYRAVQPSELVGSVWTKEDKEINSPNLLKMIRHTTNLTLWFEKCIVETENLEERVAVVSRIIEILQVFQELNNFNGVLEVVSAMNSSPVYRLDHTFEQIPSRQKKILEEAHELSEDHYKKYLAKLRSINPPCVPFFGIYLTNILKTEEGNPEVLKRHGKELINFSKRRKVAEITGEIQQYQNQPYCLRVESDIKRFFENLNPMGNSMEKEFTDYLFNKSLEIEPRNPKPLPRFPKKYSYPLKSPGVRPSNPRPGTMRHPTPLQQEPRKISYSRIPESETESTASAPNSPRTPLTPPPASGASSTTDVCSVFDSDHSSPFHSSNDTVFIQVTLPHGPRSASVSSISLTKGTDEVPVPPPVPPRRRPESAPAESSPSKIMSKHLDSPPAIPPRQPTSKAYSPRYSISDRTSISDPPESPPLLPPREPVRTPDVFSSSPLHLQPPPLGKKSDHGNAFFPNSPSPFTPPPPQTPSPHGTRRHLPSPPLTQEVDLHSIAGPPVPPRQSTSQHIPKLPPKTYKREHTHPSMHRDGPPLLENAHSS
Experimental: (§1) KRAS-WT (or G12C/G12D/G12V)/SOS1 Binding Assay
(§2) Low IC50 values are indicative of high potency of the SOS1 inhibitor compounds in this assay setting.
(§3) The KRAS-WT (or G12C/G12D/G12V)/SOS1 binding assay is performed using an assay kit (Cisbio, Cat #63ADK000CB15PEG or 63ADK000CB16PEG/63ADK000CB17PEG/63ADK000CB18PEG) according to the procedure recommended by the manufacturer. • 1) Thaw and prepare the working solution of Tag1-SOS1 protein and Tag2-KRAS-WT (or G12C/G12D/G12V) protein with final concentration of 10 μM GTP (Sigma, Cat #V900868). • 2) Thaw and prepare the working solution of anti-Tag1-Tb^3+ anti-Tag2-XL665. • 3) Dispense 2 μL of serially diluted compound, 4 μL of Tag1-SOS1 protein and 4 μL of Tag2-KRAS-WT (or G12C/G12D/G12V) protein with GTP into a ProxiPlate-384 Plus, white 384-shallow well microplate (PerkinElmer, Cat #6008280). • 4) Incubate the plate for 15 minutes at room temperature. • 5) Dispense 10 μL of pre-mixed anti-Tag1-Tb^3+ and anti-Tag2-XL665 into the plate. • 6) Seal the plate and incubate for 2 hours at room temperature. • 7) Remove the plate sealer and read on PHERAstar FS (BMG LABTECH, PHERAstar FS). • 8) Calculate the ratio of the acceptor and donor emission signals for each individual well using the following equation.
(§4) [formula] • 9) IC50 values are fitted and calculated by HTRF signal values and log of compound concentrations to nonlinear regression [Log (inhibitor) vs. Response−Variable Slope (four parameters)] using the GraphPad Prism 8.0.

[2] = target: T2, KRAS-WT and SOS1 proteins (Homo sapiens, UniProt Q07889); assay: KRAS-WT/SOS1 binding assay (HTRF); settings: Tag1-SOS1 / Tag2-KRAS-WT, 10 μM GTP, read-out: Activity Data in Kras: SOS1 Assay, Wild Type
T2 construct: purchased Cisbio 63ADK000CB15PEG
T2 sequence (Q07889 1-1333): T1 sequence (Q07889 1-1333)
Experimental: as §1, §2, §3, §4

Compound | IC50 [1] [nM] | IC50 [2] [nM]
C[C@@H](Nc1nc2ccnn2c2cc(=O)n(C3(C(F)F)CC3)cc12)c1cccc(C(F)(F)CO)c1 [Example 68, (R)-5-((1-(3-(1,1-difluoro-2-hydroxyethyl)phenyl)ethyl)amino)-7-(1-(difluoromethyl)cyclopropyl)pyrazolo[1,5-a]pyrido[3,4-e]pyrimidin-8(7H)-one] | < 100 | < 100
Cc1nc(N[C@H](C)c2cccc(C(F)(F)F)c2)c2cc(O[C@H]3CCOC3)c3nncn3c2n1 [Example 17, 12-methyl-7-(oxolan-3-yloxy)-N-[(1R)-1-[3-(trifluoromethyl)phenyl]ethyl]-2,4,5,11,13-pentaazatricyclo[7.4.0.0^{2,6}]trideca-1(9),3,5,7,10,12-hexaen-10-amine] | 100 to 500 | 100 to 500
Cc1nc(N[C@H](C)c2cccc(C(F)(F)CO)c2)c2cc(-c3ccc(=O)n(C)c3)c3c(cnn3C)c2n1 [Example 24, (R)-5-(4-((1-(3-(1,1-difluoro-2-hydroxyethyl)phenyl)ethyl)amino)-2,7-dimethyl-7H-pyrazolo[3,4-h]quinazolin-6-yl)-1-methylpyridin-2(1H)-one] | < 100 | < 100
Cc1nc(N[C@H](C)c2cccc(C(F)(F)CO)c2)c2cc(N3CC[C@H](O)C3)c3c(cnn3C)c2n1 [Example 43, (3S)-1-(4-{[(1R)-1-[3-(1,1-difluoro-2-hydroxyethyl)phenyl]ethyl]amino}-2,7-dimethyl-7H-pyrazolo[3,4-h]quinazolin-6-yl)pyrrolidin-3-ol] | < 100 | < 100
COCC(=O)N1CCC(c2cc3c(N[C@H](C)c4cccc5c4CCC5(F)F)nc(C)nc3n3cnnc23)CC1 [Example 10, (R)-1-(4-(4-((1-(1,1-difluoro-2,3-dihydro-1H-inden-4-yl)ethyl)amino)-2-methyl-[1,2,4]triazolo[4′,3′:1,6]pyrido[2,3-d]pyrimidin-6-yl)piperidin-1-yl)-2-methoxyethan-1-one] | < 100 | < 100
C[C@@H](Nc1nc(C(F)(F)F)nc2c1cc(-c1ccc(=O)n(C)c1)c1c2cnn1C)c1cccc(C(F)(F)CO)c1 [Example 32, (R)-5-(4-((1-(3-(1,1-difluoro-2-hydroxyethyl)phenyl)ethyl)amino)-7-methyl-2-(trifluoromethyl)-7H-pyrazolo[3,4-h]quinazolin-6-yl)-1-methylpyridin-2(1H)-one] | 100 to 500 | 100 to 500
CC(=O)N1CCC(c2cc3c(N[C@H](C)c4cccc(C(F)(F)F)c4)nc(C)nc3n3cnnc23)CC1 [Example 9, (R)-1-(4-(2-methyl-4-((1-(3-(trifluoromethyl)phenyl)ethyl)amino)-[1,2,4]triazolo[4′,3′:1,6]pyrido[2,3-d]pyrimidin-6-yl)piperidin-1-yl)ethan-1-one] | < 100 | < 100
Cc1c([C@@H](C)Nc2nc3ccnn3c3cc(=O)n(C4(C)CC4)cc23)cccc1C(F)(F)F [Example 63, (R)-5-((1-(2-methyl-3-(trifluoromethyl)phenyl)ethyl)amino)-7-(1-methylcyclopropyl)pyrazolo[1,5-a]pyrido[3,4-e]pyrimidin-8(7H)-one] | < 100 | < 100
CC(=O)N1CCC(Oc2cc3c(N[C@H](C)c4cccc5c4CCC5(F)F)nc(C)nc3c3cnn(C)c23)CC1 [Example 40, (R)-1-(4-((4-((1-(1,1-difluoro-2,3-dihydro-1H-inden-4-yl)ethyl)amino)-2,7-dimethyl-7H-pyrazolo[3,4-h]quinazolin-6-yl)oxy)piperidin-1-yl)ethan-1-one] | < 100 | < 100
Cc1nc(N[C@H](C)c2cccc(C(F)(F)CO)c2)c2cc(OC3CC(F)(F)C3)c3c(cnn3C)c2n1 [Example 39, (R)-2-(3-(1-((6-(3,3-difluorocyclobutoxy)-2,7-dimethyl-7H-pyrazolo[3,4-h]quinazolin-4-yl)amino)ethyl)phenyl)-2,2-difluoroethan-1-ol] | 100 to 500 | 100 to 500
COc1cc2c(cc1C1CCN(S(C)(=O)=O)CC1)c(N[C@H](C)c1cccc3c1CCC3(F)F)nc1ccnn12 [Example 53, (R)-N-(1-(1,1-difluoro-2,3-dihydro-1H-inden-4-yl)ethyl)-8-methoxy-7-(1-(methylsulfonyl)piperidin-4-yl)pyrazolo[1,5-a]quinazolin-5-amine] | 100 to 500 | 100 to 500
CC(=O)N1CCC(c2cc3c(N[C@H](C)c4cccc5c4CCC5(F)F)nc(C)nc3n3cnnc23)CC1 [Example 7, (R)-1-(4-(4-((1-(1,1-difluoro-2,3-dihydro-1H-inden-4-yl)ethyl)amino)-2-methyl-[1,2,4]triazolo[4′,3′:1,6]pyrido[2,3-d]pyrimidin-6-yl)piperidin-1-yl)ethanone] | < 100 | < 100
Cc1nc(N[C@H](C)c2cccc(C(F)(F)CO)c2)c2cc(-c3ccc(=O)[nH]c3)c3c(cnn3C)c2n1 [Example 29, (R)-5-(4-((1-(3-(1,1-difluoro-2-hydroxyethyl)phenyl)ethyl)amino)-2,7-dimethyl-7H-pyrazolo[3,4-h]quinazolin-6-yl)pyridin-2(1H)-one] | < 100 | < 100
Cc1nc(N[C@H](C)c2cccc(C(F)(F)CO)c2)c2cc(-c3ccc(=O)n(C)c3)c3[nH]ncc3c2n1 [Example 27, (R)-5-(4-((1-(3-(1,1-difluoro-2-hydroxyethyl)phenyl)ethyl)amino)-2-methyl-7H-pyrazolo[3,4-h]quinazolin-6-yl)-1-methylpyridin-2(1H)-one] | < 100 | < 100
C[C@@H](Nc1nc2ccnn2c2cc(=O)n([C@H]3CCOC3)cc12)c1cccc(C(F)(F)F)c1 [Example 69, 7-((S)-tetrahydrofuran-3-yl)-5-(((R)-1-(3-(trifluoromethyl)phenyl)ethyl)amino)pyrazolo[1,5-a]pyrido[3,4-e]pyrimidin-8(7H)-one] | 100 to 500 | 100 to 500
Cc1nc(N[C@H](C)c2cccc(C(F)(F)CO)c2)c2cc(-c3ccc(=O)n(C)c3)c3nn(C(F)(F)F)cc3c2n1 [Example 34, 5-(4-{[(1R)-1-[3-(1,1-difluoro-2-hydroxyethyl)phenyl]ethyl]amino}-2-methyl-8-(trifluoromethyl)-8H-pyrazolo[3,4-h]quinazolin-6-yl)-1-methyl-1,2-dihydropyridin-2-one] | 100 to 500 | 100 to 500
C[C@@H](Nc1nc2ccnn2c2cc(=O)n(C3(C)CC3)cc12)c1cccc(C(F)(F)CO)c1 [Example 61, (R)-5-((1-(3-(1,1-difluoro-2-hydroxyethyl)phenyl)ethyl)amino)-7-(1-methylcyclopropyl)pyrazolo[1,5-a]pyrido[3,4-e]pyrimidin-8(7H)-one] | < 100 | < 100
